# Tests used:
# [1] = Degree of order S of dye in nematic liquid crystal mixture (dichroic ratio CR, homogeneously oriented measuring cell); assay type: physicochemical
# Procedure: (§1) The degree of order S measured at room temperature, the solubility L likewise determined at room temperature, and the Merck liquid crystal mixtures used are summarized in Table 1 for Examples 1, 4, 5, 8, 12, 15 and 18.
# (§2) The values for the degree of order and the solubility which have been measured at room temperature in ZLI 2452 are summarized in Table 2 for some of the Examples 19-46.
# The degree of order S was determined on the basis of the known equation [formula] in a commercial measuring cell with a homogeneous orientation (polyimide).The dichroic ratio CR was determined by measuring the extinctions E^.parallel. (measured with light polarized parallel to the preferred direction of the nematic phase) and E^.perp. (measured with light polarized perpendicular to the preferred direction of the nematic phase) and using the relationship CR=E^.parallel. /E^.perp., the dye concentrations being chosen so that E^.parallel. was from 1 to 2. The measurements were carried out using an Acta CIII spectrophotometer from Beckmann.
# [2] = Solubility L of dye in liquid crystal mixture at room temperature (saturated solution, comparison of extinctions); assay type: physicochemical
# Procedure: as §1, §2
# The solubility was determined as described below. 50 mg of the particular dye was stirred for 1 week at room temperature in 1 ml of liquid crystal, the saturated solution was centrifuged off from the residue, and the solubility was determined by comparison of extinctions.
# [3] = liquid crystal mixture ZLI 1957/5
# [4] = liquid crystal mixture ZLI 1840
# [5] = liquid crystal mixture ZLI 2452 (Table 1)
# [6] = liquid crystal mixture ZLI 2585
SMILES,Degree of order S (at room temperature) ([1]; ZLI 2452 (Table 2)),Solubility L (at room temperature) ([2]; ZLI 2452 (Table 2)),also measured
CCCCCCCCSc1nsc(N=Nc2ccc(N=Nc3ccc(NCc4ccc(C5CCC(CCCC)CC5)cc4)c4ccccc34)cc2)n1 (stereo not drawn) [Example 18],,,"Degree of order S (at room temperature) [1, 3]: 0.79; Solubility L (at room temperature) [2, 3]: 0.9%"
CCCCSc1nsc(N=Nc2cc(C)c(N=Nc3ccc(N(C)C)cc3C)cc2C)n1 [Example 4],,,"Degree of order S (at room temperature) [1, 4]: 0.73; Solubility L (at room temperature) [2, 4]: 0.9%"
CCCCC(CC)CSc1nsc(N=Nc2cc(C)c(N=Nc3ccc(NCC)c4ccccc34)cc2C)n1 (stereo not drawn) [Example 38],0.74,> 5%,
CCCCCCCCSc1nsc(N=Nc2ccc(N=Nc3ccc(N(C)CCCC)cc3)cc2)n1 [Example 1],,,"Degree of order S (at room temperature) [1, 3]: 0.72; Solubility L (at room temperature) [2, 3]: 1.5%"
CCCCCCCCSc1nsc(N=Nc2cc(C)c(N=Nc3ccc(N(C)C)cc3C)cc2C)n1 [Example 8],,,"Degree of order S (at room temperature) [1, 3]: 0.73; Degree of order S (at room temperature) [1, 5]: 0.76; Solubility L (at room temperature) [2, 3]: 1.5%"
CCCCC1CCC(c2ccc(CNc3ccc(N=Nc4ccc(N=Nc5nc(SCC(CC)CCCC)ns5)c(C)c4)c4ccccc34)cc2)CC1 (stereo not drawn) [Example 45],0.81,2.4%,
CCCCC1CCC(c2ccc(CNc3ccc(N=Nc4ccc(N=Nc5nc(SCC(CC)CCCC)ns5)cc4)c4ccccc34)cc2)CC1 (stereo not drawn) [Example 44],0.81,2.6%,
CCCCC1CCC(c2ccc(CNc3ccc(N=Nc4cc(C)c(N=Nc5nc(SCC(CC)CCCC)ns5)cc4C)c4ccccc34)cc2)CC1 (stereo not drawn) [Example 46],0.80,0.8%,
Cc1cc(N=Nc2ccc(N(C)C)cc2C)c(C)cc1N=Nc1nc(SCc2ccccc2)ns1 [Example 5],,,"Degree of order S (at room temperature) [1, 4]: 0.74; Solubility L (at room temperature) [2, 4]: 0.3%"
CCCCCCCCNc1ccc(N=Nc2cc(C)c(N=Nc3nc(SCCCCCCCC)ns3)cc2C)c2ccc(C)nc12 [Example 19],0.75,0.6%,
CCCCCCCCSc1nsc(N=Nc2cc(C)c(N=Nc3ccc(NCc4ccc(C5CCC(CCCC)CC5)cc4)c4ccccc34)cc2C)n1 (stereo not drawn) [Example 15],,,"Degree of order S (at room temperature) [1, 3]: 0.77; Degree of order S (at room temperature) [1, 5]: 0.81; Degree of order S (at room temperature) [1, 6]: 0.74; Solubility L (at room temperature) [2, 3]: 1.4%; Solubility L (at room temperature) [2, 5]: 2.8%; Solubility L (at room temperature) [2, 6]: 2.8%"
CCNc1ccc(N=Nc2cc(C)c(N=Nc3nc(SC)ns3)cc2C)c2ccccc12 [Example 12],,,"Degree of order S (at room temperature) [1, 4]: 0.72; Solubility L (at room temperature) [2, 4]: 0.7%"
CCCCCCCCCCCCNc1ccc(N=Nc2cc(C)c(N=Nc3nc(SCCCCCCCCCCCC)ns3)cc2C)c2ccccc12 [Example 40],0.77,1.2%,
CCCCCCCCCCCCN(C)c1ccc(N=Nc2cc(C)c(N=Nc3nc(CCCCCCC)ns3)cc2C)c2ccccc12 [Example 22],0.77,1.7%,

# Second part, led by results:
Degree of order S (at room temperature) ([1]; ZLI 2452 (Table 2)),Solubility L (at room temperature) ([2]; ZLI 2452 (Table 2)),SMILES,also measured
0.77,0.8%,CCCCCCCCNc1ccc(N=Nc2cc(C)c(N=Nc3nc(SCCCCCCCC)ns3)cc2C)c2ccccc12 [Example 36],
0.71,3.2%,CCCCCCCCSc1nsc(N=Nc2cc(C)c(N=Nc3ccc(Nc4ccc(CCCC)cc4)c4ccccc34)cc2C)n1 [Example 43],
0.74,0.6%,CCCCCCCCSc1nsc(N=Nc2cc(C)c(N=Nc3ccc(NCCc4ccccc4)c4ccccc34)cc2C)n1 [Example 41],
0.79,0.6%,CCCCCCCCCCCCNc1ccc(N=Nc2cc(C)c(N=Nc3nc(SCCCCCCC)ns3)cc2C)c2ccccc12 [Example 35],
0.76,1.3%,CCCCCCCCCCCCNc1ccc(N=Nc2cc(C)c(N=Nc3nc(SC)ns3)cc2C)c2ccccc12 [Example 26],
0.80,0.4%,CCCCCCCCSc1nsc(N=Nc2cc(C)c(N=Nc3ccc(NCc4ccc(CCCCC)cc4)c4ccccc34)cc2C)n1 [Example 42],

# — patent publication US4681699A, “Bisazo dyes and their use in liquid crystalline materials” (BASF Aktiengesellschaft, priority 1984, dated 1987)
